Experimental data: patent publication US10292390B2, “Inhibition and dispersion of bacterial biofilms with 2-aminobenzimidazole derivatives” (WISCONSIN ALUMNI RESEARCH FOUNDATION, priority 2011, dated 2019)

Experiments:
[1] = test system: LasR activity, P. aeruginosa PAO1/plasI-LVAgfp; assay: Las QS reporter assay (GFP fluorescence); assay type: cell-based, Pseudomonas aeruginosa; settings: for LasR activity: at 1-10× IC50 values for biofilm inhibition; for inhibition of Las-QS system: fluorescence dose curves, 12 and 24 h
Method: (§1) As introduced above, the role of QS in biofilm formation is well documented and therefore the abilities of 7 and 21 to inhibit QS in P. aeruginosa were evaluated. For this purpose, two wild-type P. aeruginosa QS reporter strains were prepared that contain the plasmids plasI-LVAgfp and prhII-LVAgfp. (see: The Examples) These strains report the activity of two intracellular QS receptors in P. aeruginosa (LasR and RhlR) by the production of green fluorescent protein (gfp), allowing for LasR and RhlR activities, and thus QS levels, to be quantified by fluorescence. […] Studies of related 2-ABI derivatives have shown that this class of molecules is bacterial cell permeable, allowing us to surmise that 7 and 21 could act on the Las and Rhl systems intracellularly. […] The precise targets of 7 and 21 that result in QS disruption are not yet known.
(§2) To evaluate the activity of compounds 7 and 21 on QS in P. aeruginosa, we prepared two P. aeruginosa QS reporter strains: PAO1/plasI-LVAgfp and PAO1/prhII-LVAgfp. These strains contain the reporter plasmids plasI-LVAgfp and prhII-LVAgfp, respectively, which contain the laslI or rhII promoter sequences fused to LVAgfp. Binding of activated LasR or RhlR to these promoters induces GFP production, which can be quantified by fluorescence and is proportional to the level of LasR or RhlR activation. LVAgfp is an unstable form of GFP with an estimated half-life of 40-60 min, which allows for a more real-time analysis of gene expression (wild-type GFP has a half-life of greater than 1 day). Further, this specific GFP is the variant GFPmut3b that has a shifted excitation maximum near 501 nm (wild-type GFP has an excitation maximum near 395 nm); emission maximum is similar to wild-type GFP at 511 nm (wild-type GFP has emission maximum near 508 nm). Utilizing this GFP variant is key to detection over native fluorescent pigments that are produced in P. aeruginosa and excite near 400 nm and emit near 500 nm. Preparation and analysis of the PAO1/plasI-LVAgfp and PAO1/prhII-LVAgfp reporters are outlined below.
(§3) Compounds 7 and 21 were evaluated for their ability to modulate the Las and Rhl systems using the P. aeruginosa PAO1/plasI-LVAgfp and PAO1/prhII-LVAgfp reporters. We used the same exact setup as the static biofilm assay in 96-well microtiter plates for P. aeruginosa with the exception that freezer stocks were streaked on LB/agar with 300 μg/mL Carb. Microtiter plates were prepared similar to dose-response analysis such that final well concentrations upon inoculum addition ranged from 10^x μM where x=3.5, 3, 2.5, 2, 1.5, 1, 0, −1, or −2. Measurements of FL500/540 and OD600 were made at 12 and 24 h, and after 24 h the samples were evaluated for biofilm formation using the CV procedure. […]

[2] = test system: preformed P. aeruginosa biofilms; assay: biofilm dispersion assay (preformed 24 h-old biofilms, crystal violet); assay type: cell-based, Pseudomonas aeruginosa; settings: for dispersion of preformed biofilm / DC50: 24 h-old biofilm, additional 24 h with compound; for effect on final OD600 measurement during dispersion: 48 h; for DC50: Pseudomonas aeruginosa, read-out: half maximal dispersion DC50
Method: Compounds capable of not only inhibiting biofilm growth, but also dispersing preformed biofilms, are of particular value for a range of clinical and other applications. The ability of compounds 7 and 21 to disperse 24 h-old P. aeruginosa biofilms was tested using the crystal violet staining assay (FIG. 1B). Biofilms were allowed to develop in the absence of compound for 24 h, after which non-biofilm material was removed by washing with buffer and fresh media with compound was added. Biofilm was quantified after an additional 24 h, and the amount of dispersed biofilm was determined via comparison of the amount of biofilm at 48 h in the presence of compound versus the amount of biofilm at 24 h in the absence of compound. 2-ABIs 7 and 21 were capable of strongly dispersing P. aeruginosa biofilms (˜80%), with half maximal dispersion DC50 values of 84 μM and 92 μM, respectively (FIG. 1B).
Compounds 7 and 21 were evaluated for their ability to disperse preformed P. aeruginosa biofilms. For biofilm dispersion assessment, the static CV biofilm assay described above was modified in order to introduce compound to preformed biofilm for an additional incubation period. Solvent evaporation delivery of compound was not possible in this format; thus, stock solutions of compounds 7 and 21 were prepared in 95:5 M9+:LB media. Stocks of 7 and 21 were prepared at 3.16 mM and 1 mM, respectively (21 was insoluble at 3.16 mM). These stocks were diluted in series to obtain final concentrations as follows: 10^x μM where x=3.5 (7 only), 3, 2.5, 2, 1.5 (21 only), 1, 0, −1, or −2. Biofilms were allowed to form in microtiter plates in the absence of compound for 24 h, after which non-biofilm material was removed by dumping and washing as normal with sterile PBS. After the second washing, 200 μL of fresh 95:5 M9+:LB media containing compound at various concentrations was added to the wells, and the plates were incubated at 37° C. for an additional 24 h. One set of wells was left empty in order to assess the amount of biofilm present after the first 24 h incubation, while another set of wells was given media without compound to assess the amount of biofilm at 48 h. […] After the second 24 h incubation, non-biofilm material was removed by dumping and washing 4× with PBS (the additional washing at 48 h was found necessary to completely remove detached Int biofilm that had settled over the SA biofilm; data not shown). Biofilm was fixed and quantified with CV as described above. The amount of dispersed biofilm was determined via comparison of the amount of biofilm at 48 h in the presence of compound versus the amount of biofilm in the “no compound” positive control at 24 h. A higher degree of error was often observed with this assay format due to the additional incubation and washing steps; thus, all compounds were tested in replicates of 6 wells.
DC50 values for biofilm dispersion by 7 and 21 were calculated using a sigmoidal curve fit (three parameters) and are reported with a 95% Cl.

[3] = solubility of stock in 95:5 M9+:LB media; assay type: physicochemical; settings: at 3.16 mM in 95:5 M9+:LB media
Method: Compounds 7 and 21 were evaluated for their ability to disperse preformed P. aeruginosa biofilms. For biofilm dispersion assessment, the static CV biofilm assay described above was modified in order to introduce compound to preformed biofilm for an additional incubation period. Solvent evaporation delivery of compound was not possible in this format; thus, stock solutions of compounds 7 and 21 were prepared in 95:5 M9+:LB media. Stocks of 7 and 21 were prepared at 3.16 mM and 1 mM, respectively (21 was insoluble at 3.16 mM). These stocks were diluted in series to obtain final concentrations as follows: 10^x μM where x=3.5 (7 only), 3, 2.5, 2, 1.5 (21 only), 1, 0, −1, or −2. Biofilms were allowed to form in microtiter plates in the absence of compound for 24 h, after which non-biofilm material was removed by dumping and washing as normal with sterile PBS. After the second washing, 200 μL of fresh 95:5 M9+:LB media containing compound at various concentrations was added to the wells, and the plates were incubated at 37° C. for an additional 24 h. […] Biofilm was fixed and quantified with CV as described above. The amount of dispersed biofilm was determined via comparison of the amount of biofilm at 48 h in the presence of compound versus the amount of biofilm in the “no compound” positive control at 24 h. […]

[4] = test system: RhlR activity, P. aeruginosa PAO1/prhII-LVAgfp; assay: Rhl QS reporter assay (GFP fluorescence); assay type: cell-based, Pseudomonas aeruginosa; settings: for RhlR activity: at 1-10× IC50 values for biofilm inhibition; for inhibition of Rhl-QS system: fluorescence dose curves, 12 and 24 h
Method: as §1, §2, §3

Gram-positive bacteria = settings: WO 2010/144686 (7); ref. 34 (18); cited from earlier work

Row | Compound | LasR activity [1] | inhibition of Las-QS system [1] | dispersion of preformed biofilm [2] [%] | effect on final OD600 measurement during dispersion [2] | DC50 [2] [µM] | solubility [3] | RhlR activity [4] | inhibition of Rhl-QS system [4] | biofilm inhibition in Gram-positive bacteria as reported (Gram-positive bacteria)
1 | Cc1cc2nc(N)[nH]c2cc1C [Compound 21, 5,6-Dimethyl-2-aminobenzimidazole] | significant reduction | able to inhibit | ~80 | without significantly affecting the final OD600 measurement | 92 | insoluble | significant reduction | able to inhibit | 
2 | Nc1nc2ccccc2[nH]1 [Compound 7, 2-aminobenzimidazole] | significant reduction | able to inhibit | ~80 | without significantly affecting the final OD600 measurement | 84 |  | significant reduction | able to inhibit | no inhibition of biofilm formation
